SMILES strings stand for the structures.

Sequence of Factor D (P00746 26-253): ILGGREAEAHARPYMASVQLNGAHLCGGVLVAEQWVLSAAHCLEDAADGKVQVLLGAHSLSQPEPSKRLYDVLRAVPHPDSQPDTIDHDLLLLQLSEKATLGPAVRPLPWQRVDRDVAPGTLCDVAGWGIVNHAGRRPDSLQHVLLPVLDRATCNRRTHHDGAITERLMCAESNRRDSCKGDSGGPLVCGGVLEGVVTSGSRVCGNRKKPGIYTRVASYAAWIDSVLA

For this assay, the target named is Factor D (Homo sapiens (Human), UniProt P00746). Nature of the assay: Factor D esterolytic assay. It counts as biochemical. Particulars: Z-Lys-SBzl substrate, 100 mM HEPES, 500 mM NaCl, pH 7.5, 10% DMSO; tested a minimum of three times; read-out: Measured Ki (IC50) Value for Compounds: IC50. In a few lines:
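Buffer was 100 mM HEPES, 500 mM NaCl, pH 7.5 with 10% DMSO. Compound and Factor D were combined, then Z-Lys-SBzl (1.29 mM) was added either at once or following room-temperature incubation. Rates came from DTNB colour at 405 nm minus 690 nm over 600 s, with percent inhibition giving IC50 over at least three tests.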
Turning to `Cn1cc(-c2cc(-c3cccc(CN)c3)cc3c(COc4ccccc4CC(=O)O)coc23)cn1` [Compound 72h, 2-(2-((5-(3-(aminomethyl)phenyl)-7-(1-methyl-1H-pyrazol-4-yl)benzofuran-3-yl)methoxy)phenyl)acetic acid], the IC50 was less than 1 µM.
For `Cn1ccc(COc2cc(-c3cccc(CN)c3)cc3c(COc4ccccc4CC(=O)O)coc23)n1` [Compound 198f, 2-(2-((5-(3-(aminomethyl)phenyl)-7-((1-methyl-1H-pyrazol-3-yl)methoxy)benzofuran-3-yl)methoxy)phenyl)acetic acid] the value was less than 1 µM.
Next, `CC(C)n1nc(COc2ccccc2CC(=O)O)c2cc(-c3cc(CN)cc(OCc4cccnc4)c3)ccc21` [Compound 243h, 2-(2-((5-(3-(aminomethyl)-5-(pyridin-3-ylmethoxy)phenyl)-1-isopropyl-1H-indazol-3-yl)methoxy)phenyl)acetic acid]: greater than 10 µM; `NCc1cccc(-c2ccc3oc(C(=O)O)c(COc4ccccc4CC(=O)O)c3c2)c1` [Compound 55d, 5-(3-(aminomethyl)phenyl)-3-((2-(carboxymethyl)phenoxy)methyl)benzofuran-2-carboxylic acid]: less than 1 µM.
Regarding `NCc1cccc(-c2cc(-c3ccccc3)c3occ(COc4ccccc4CC(=O)O)c3c2)c1` [Compound 135c, 2-(2-((5-(3-(aminomethyl)phenyl)-7-phenylbenzofuran-3-yl)methoxy)phenyl)acetic acid], the IC50 was less than 1 µM.
In the case of `COc1c(CN)cccc1-c1ccc2c(c1)c(COc1ccccc1CC(=O)O)nn2C(C)C` [Compound 325b, 2-(2-((5-(3-(aminomethyl)-2-methoxyphenyl)-1-isopropyl-1H-indazol-3-yl)methoxy)phenyl)acetic acid], the IC50 fell in the range of 1 to 10 µM.
Next, `NCc1cccc(-c2cc(/C=C/C3CC3)c3occ(COc4ccccc4CC(=O)O)c3c2)c1` [Compound 132d, (E)-2-(2-((5-(3-(aminomethyl)phenyl)-7-(2-cyclopropylvinyl)benzofuran-3-yl)methoxy)phenyl)acetic acid]: less than 1 µM; `COc1ccc(CC(=O)O)c(OCc2c(C(F)F)oc3ccc(-c4cccc(CN)c4)cc23)c1` [Compound 215d, 2-(2-((5-(3-(aminomethyl)phenyl)-2-(difluoromethyl)benzofuran-3-yl)methoxy)-4-methoxyphenyl)acetic acid]: less than 1 µM.
Consider `Cc1ccc(CC(=O)O)c(OCc2coc3c2cc(-c2cccc(CN)c2)c2occc23)c1` [Compound 230c, 2-(2-((5-(3-(aminomethyl)phenyl)benzo[1,2-b:3,4-b′]difuran-3-yl)methoxy)-4-methylphenyl)acetic acid], for which the IC50 is less than 1 µM.
As to `NCc1cccc(-c2cc(OCc3ccccn3)c3occ(COc4ccccc4CC(=O)O)c3c2)c1` [Compound 195f, 2-(2-((5-(3-(aminomethyl)phenyl)-7-(pyridin-2-ylmethoxy)benzofuran-3-yl)methoxy)phenyl)acetic acid], the IC50 was less than 1 µM.
For the compound `NCc1cccc(-c2ccc3oc(C(=O)NC4CC4)c(COc4ccccc4CC(=O)O)c3c2)c1` [Compound 64h, 2-(2-((5-(3-(aminomethyl)phenyl)-2-(cyclopropylcarbamoyl)benzofuran-3-yl)methoxy)phenyl)acetic acid], the IC50 is less than 1 µM.
For `NCc1cccc(-c2cccc3cc(COc4ccccc4CC(=O)O)sc23)c1` [Compound 30d, 2-(2-((7-(3-(aminomethyl)phenyl)benzo[b]thiophen-2-yl)methoxy)phenyl)acetic acid], the IC50 is less than 1 µM.
With `Cn1nc(NC(=O)c2ccccc2CC(=O)O)c2cc(-c3cccc(CN)c3)ccc21` [Compound 74d, 2-(2-((5-(3-(aminomethyl)phenyl)-1-methyl-1H-indazol-3-yl)carbamoyl)phenyl)acetic acid], the IC50 is less than 1 µM.
For `CC(O)c1oc2ccc(-c3cccc(CN)c3)cc2c1COc1ccccc1CC(=O)O` (stereo not drawn) [Compound 125d, 2-(2-((5-(3-(aminomethyl)phenyl)-2-(1-hydroxyethyl)benzofuran-3-yl)methoxy)phenyl)acetic acid] the value was less than 1 µM; for `CC(C)(C)OC(=O)N1CCN(Cc2cc(-c3cccc(CN)c3)cc3c(COc4ccccc4CC(=O)O)coc23)CC1` [Compound 121f, 2-(2-((5-(3-(aminomethyl)phenyl)-7-((4-(tert-butoxycarbonyl)piperazin-1-yl)methyl)benzofuran-3-yl)methoxy)phenyl)acetic acid], less than 1 µM.
Next, `NCc1nccc(-c2ccc3occ(COc4ccccc4CC(=O)O)c3c2)c1F` [Compound 50d, 2-(2-((5-(2-(aminomethyl)-3-fluoropyridin-4-yl)benzofuran-3-yl)methoxy)phenyl)acetic acid]: less than 1 µM.
For `NCc1cccc(-c2cc(-c3cccc(CN)c3)c3oc(COc4ccccc4CC(=O)O)cc3c2)c1` [Compound 8e, 2-(2-((5,7-bis(3-(aminomethyl)phenyl)benzofuran-2-yl)methoxy)phenyl)acetic acid] the value was less than 1 µM.
`COc1ccc(CC(=O)O)c(OCc2nn(C)c3ccc(-c4cccc(CN)c4)cc23)c1` [Compound 185c, 2-(2-((5-(3-(aminomethyl)phenyl)-1-methyl-1H-indazol-3-yl)methoxy)-4-methoxyphenyl)acetic acid]: the IC50 was less than 1 µM.
For `NCc1cccc(-c2ccc3snc(COc4ccccc4CC(=O)O)c3c2)c1` [Compound 93e, 2-(2-((5-(3-(aminomethyl)phenyl)benzo[d]isothiazol-3-yl)methoxy)phenyl)acetic acid] the value was less than 1 µM; for `NCc1cccc(-c2cc(COc3ccccc3CC(=O)O)cc3cc(COc4ccccc4CC(=O)O)oc23)c1` [Compound 7f, 2,2′-((((7-(3-(aminomethyl)phenyl)benzofuran-2,5-diyl)bis(methylene))bis(oxy))bis(2,1-phenylene))diacetic acid], less than 1 µM.
For `Cc1ccccc1-c1cc(-c2cccc(CN)c2)cc2c(COc3ccccc3CC(=O)O)coc12` [Compound 223c, 2-(2-((5-(3-(aminomethyl)phenyl)-7-(o-tolyl)benzofuran-3-yl)methoxy)phenyl)acetic acid] the value was less than 1 µM.
Next, `COc1cc2occ(COc3ccccc3CC(=O)O)c2cc1-c1cccc(CN)c1` [Compound 69f, 2-(2-((5-(3-(aminomethyl)phenyl)-6-methoxybenzofuran-3-yl)methoxy)phenyl)acetic acid]: less than 1 µM; `NCc1cccc(-c2ccc3[nH]nc(C(=O)Nc4ccccc4CC(=O)O)c3c2)c1` [Compound 78e, 2-(2-(5-(3-(aminomethyl)phenyl)-1H-indazole-3-carboxamido)phenyl)acetic acid]: less than 1 µM.
Take `NCc1cccc(-c2cc(OCc3ccncc3)c3occ(COc4ccccc4CC(=O)O)c3c2)c1` [Compound 166f, 2-(2-((5-(3-(aminomethyl)phenyl)-7-(pyridin-4-ylmethoxy)benzofuran-3-yl)methoxy)phenyl)acetic acid]: the IC50 was less than 1 µM.
Take `COc1ccc(CC(=O)O)c(OCc2coc3c(NC(C)C)cc(-c4cccc(CN)c4)cc23)c1` [Compound 278c, 2-(2-((5-(3-(aminomethyl)phenyl)-7-(isopropylamino)benzofuran-3-yl)methoxy)-4-methoxyphenyl)acetic acid]: the IC50 is less than 1 µM.
For `NCc1cccc(-c2cc([N+](=O)[O-])c3oc(C(=O)O)c(COc4ccccc4CC(=O)O)c3c2)c1` [Compound 59g, 5-(3-(aminomethyl)phenyl)-3-((2-(carboxymethyl)phenoxy)methyl)-7-nitrobenzofuran-2-carboxylic acid] the value was less than 1 µM; for `COc1ccc(CC(=O)O)c(OCc2c(C(C)(C)C)oc3ccc(-c4cccc(CN)c4)cc23)c1` [Compound 174c, 2-(2-((5-(3-(aminomethyl)phenyl)-2-(tert-butyl)benzofuran-3-yl)methoxy)-4-methoxyphenyl)acetic acid], less than 1 µM; for `NCc1cccc(-c2cc(COc3ccccc3CC(=O)O)cc3cc(COc4ccccc4CC(=O)O)oc23)c1F` [Compound 13b, 2,2′-((((7-(3-(aminomethyl)-2-fluorophenyl)benzofuran-2,5-diyl)bis(methylene))bis(oxy))bis(2,1-phenylene))diacetic acid], less than 1 µM.
Next, `COc1ccc(CC(=O)O)c(OCc2nn(C)c3ccc(-c4cccc(CN)c4F)cc23)c1` [Compound 309b, 2-(2-((5-(3-(aminomethyl)-2-fluorophenyl)-1-methyl-1H-indazol-3-yl)methoxy)-4-methoxyphenyl)acetic acid]: less than 1 µM; `NCc1cccc(-c2ccc3oc(-c4ccc(F)cc4)c(COc4ccccc4CC(=O)O)c3c2)c1` [Compound 167e, 2-(2-((5-(3-(aminomethyl)phenyl)-2-(4-fluorophenyl)benzofuran-3-yl)methoxy)phenyl)acetic acid]: less than 1 µM.
Next, `NCc1cccc(-c2ccc3occ(COc4cccc(CC(=O)O)c4)c3c2)c1` [Compound 4d, 2-(3-((5-(3-(aminomethyl)phenyl)benzofuran-3-yl)methoxy)phenyl)acetic acid]: 1 to 10 µM; `CC(C)(C)OC(=O)n1cc(COc2ccccc2CC(=O)O)c2cc(-c3cccc(CN)c3)ccc21` [Compound 75d, 2-(2-((5-(3-(aminomethyl)phenyl)-1-(tert-butoxycarbonyl)-1H-indol-3-yl)methoxy)phenyl)acetic acid]: less than 1 µM; `NCc1cccc(-c2ccc3ncc(COc4ccccc4CC(=O)O)n3c2)c1` [Compound 65e, 2-(2-((6-(3-(aminomethyl)phenyl)imidazo[1,2-a]pyridin-3-yl)methoxy)phenyl)acetic acid]: less than 1 µM.

Values taken from patent publication US20250186391A1, “ORAL COMPLEMENT FACTOR D INHIBITORS” (BioCryst Pharmaceuticals, Inc., priority 2019, published 2025).
